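Where inhibition never reached the appropriate level, the endpoint shown equals the highest concentration tested. Otherwise, values were interpolated linearly from a five-concentration, 48-hour dose response in 96-well plates. GI50 is the concentration that inhibits growth by half.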 The source made the active and inactive calls. Cut-off read from the data, not from the text of the source: active = GI50 up to about 1.1 µM and inactive = higher.

Test systems include TK-10; NCI-H522; ACHN; SNB-19; PC-3; SNB-75; UACC-257; MDA-N; U-251; HCT-15; SK-MEL-28; MDA-MB-231; OVCAR-3; EKVX; HCT-116; UO-31; Malme-3M; UACC-62; OVCAR-5.
Assay in all cases: growth of human tumour cells (NCI), 48 h

Consider `COc1ccc(-c2c(-c3ccc(OC)cc3)n3c(=O)n(C)c(=O)n23)cc1`, for which the GI50 in the assay with TK-10 was 33.3 µM (inactive); with NCI-H522, > 100 µM (inactive); in the assay with ACHN it was 67.1 µM (inactive); in the assay on SNB-19, 17.1 µM (inactive); in the assay on PC-3, 27.4 µM (inactive); in the assay on SNB-75 it was > 100 µM (inactive). The GI50 is 50.5 µM (inactive) in the assay on UACC-257; > 10 µM (inactive) in the assay on MDA-N; > 100 µM (inactive) in the assay with U-251; 81.5 µM in the assay with HCT-15; > 100 µM (inactive) in the assay with SK-MEL-28; > 100 µM (inactive) with MDA-MB-231. The GI50 was 18.2 µM (inactive) with OVCAR-3; 34.9 µM (inactive) with EKVX; > 100 µM (inactive) with HCT-116; 32.3 µM (inactive) with UO-31; 91.6 µM (inactive) in the assay on Malme-3M; 30.5 µM (inactive) in the assay on UACC-62.
Regarding `C/C(=N\c1c2ccccc2nc2ccccc12)N(C)C`, the GI50 with TK-10 is 21.9 µM (inactive); in the assay on NCI-H522 it was 10.7 µM (inactive); in the assay on ACHN, 19.8 µM (inactive); with SNB-19 it was 34 µM (inactive); with PC-3 it was 14.6 µM (inactive); in the assay with SNB-75, 24.1 µM (inactive). Moreover, the GI50 with UACC-257 is 16.9 µM (inactive); in the assay with MDA-N, 21.6 µM (inactive); with U-251 it was 23 µM (inactive); in the assay on HCT-15, 28.6 µM; in the assay on SK-MEL-28, 18.4 µM (inactive); in the assay on MDA-MB-231, 14.6 µM (inactive). The GI50 in the assay on OVCAR-3 was 14.4 µM (inactive); in the assay with EKVX, 32.7 µM (inactive); with HCT-116, 10.4 µM (inactive); in the assay with UO-31, 9.64 µM (inactive); in the assay with OVCAR-5 it was 20.5 µM (inactive); with Malme-3M, 32.9 µM (inactive). For the same molecule, in the assay with UACC-62, the GI50 is 15.2 µM (inactive).
With `C=C1CC(C)(COc2cc(=O)oc3ccccc23)OC1=O` (configuration not stated), the GI50 was 1.77 µM (inactive) in the assay with TK-10; 1.8 µM (inactive) in the assay with NCI-H522; 5.21 µM (inactive) with ACHN; 15.8 µM (inactive) in the assay on SNB-19; 4.11 µM (inactive) in the assay with PC-3; 8.07 µM (inactive) with SNB-75. In addition, the GI50 in the assay with UACC-257 is 1.87 µM (inactive); with MDA-N it was 4.13 µM (inactive); with U-251, 14.3 µM (inactive); in the assay with HCT-15 it was 3.43 µM; with SK-MEL-28 it was 3.05 µM (inactive); in the assay with MDA-MB-231 it was 7.38 µM (inactive). The GI50 with OVCAR-3 is 3.96 µM (inactive); in the assay on EKVX, 12.3 µM (inactive); in the assay with HCT-116 it was 2.71 µM (inactive); in the assay with UO-31, 12.1 µM (inactive); with OVCAR-5, 7.78 µM (inactive); with Malme-3M, 2.04 µM (inactive). Moreover, the GI50 in the assay on UACC-62 was 2.48 µM (inactive).
Consider `N#CC12C(=O)N3C(=NC(c4ccccc4)NC3c3ccccc3)C1(C#N)C(c1ccccc1)NC1=C2CCCC1` (configuration not stated), for which the GI50 in the assay on TK-10, with NCI-H522, with ACHN, with SNB-19, in the assay on PC-3 and with SNB-75 was > 100 µM (inactive) in each case. The GI50 is > 100 µM (inactive) in the assay on UACC-257; > 100 µM (inactive) in the assay with MDA-N; > 100 µM (inactive) with U-251; greater than 100 µM in the assay with HCT-15; > 100 µM (inactive) with SK-MEL-28; > 100 µM (inactive) with MDA-MB-231. Moreover, the GI50 in the assay with OVCAR-3, with EKVX, with HCT-116, in the assay on UO-31, in the assay on OVCAR-5 and in the assay on Malme-3M was > 100 µM (inactive) throughout. The GI50 with UACC-62 is > 100 µM (inactive).
As for `O=[N+]([O-])c1ccc(C2=NOC(c3ccccc3)N2C23CC4CC(CC(C4)C2)C3)cc1` (configuration not stated), the GI50 in the assay with TK-10 was 37.2 µM (inactive); in the assay on NCI-H522, 19 µM (inactive); with ACHN it was 20.1 µM (inactive); in the assay on SNB-19, > 10 µM (inactive); in the assay with PC-3 it was 20.5 µM (inactive); with SNB-75, 21.9 µM (inactive). For the same molecule, the GI50 with UACC-257 was 47.8 µM (inactive); with MDA-N, 26.7 µM (inactive); in the assay on U-251 it was 34.6 µM (inactive); in the assay on HCT-15, 29.8 µM; in the assay with SK-MEL-28, 58.5 µM (inactive); in the assay on MDA-MB-231, 31.4 µM (inactive). Besides, the GI50 in the assay with OVCAR-3 was 23.5 µM (inactive); in the assay on EKVX, 48.1 µM (inactive); in the assay on HCT-116, 22.1 µM (inactive); in the assay with UO-31, 9.23 µM (inactive); with OVCAR-5, 14.4 µM (inactive); in the assay on Malme-3M it was 25.1 µM (inactive). Also, the GI50 with UACC-62 was 20.8 µM (inactive).
`O=C(/C=C/c1cc(O)c(O)cc1O)OCCc1ccccc1`: the GI50 in the assay with TK-10 is 6.11 µM (inactive); in the assay with NCI-H522, 2.28 µM (inactive); in the assay with ACHN it was 12.2 µM (inactive); in the assay on SNB-19, 61.7 µM (inactive); in the assay on PC-3, 17.3 µM (inactive); in the assay on SNB-75 it was 56 µM (inactive). Besides, the GI50 with UACC-257 was 34.8 µM (inactive); in the assay on MDA-N it was 13.2 µM (inactive); in the assay with U-251 it was 27.7 µM (inactive); in the assay with HCT-15, 22.2 µM; with SK-MEL-28, 21 µM (inactive); with MDA-MB-231, 23.5 µM (inactive). The GI50 with OVCAR-3 was 10.3 µM (inactive); in the assay with EKVX, 41.4 µM (inactive); with HCT-116, > 41.7 µM (inactive); in the assay with UO-31 it was 10.3 µM (inactive); in the assay on OVCAR-5, > 41.9 µM (inactive); with Malme-3M, 13.6 µM (inactive). Besides, the GI50 in the assay with UACC-62 is 17.9 µM (inactive).
As to `O=c1ccc2c(Cl)cccc2o1`, the GI50 with TK-10, in the assay on NCI-H522, with ACHN, in the assay on SNB-19, in the assay with PC-3 and in the assay with SNB-75 was > 100 µM (inactive) throughout. Also, the GI50 in the assay with UACC-257, with MDA-N, with U-251, in the assay with SK-MEL-28, with MDA-MB-231 and in the assay with OVCAR-3 was > 100 µM (inactive) each time. Further, the GI50 is 58.3 µM (inactive) in the assay with EKVX; > 100 µM (inactive) in the assay on HCT-116; > 100 µM (inactive) in the assay with UO-31; > 100 µM (inactive) with OVCAR-5; > 100 µM (inactive) with Malme-3M; > 100 µM (inactive) with UACC-62.
In the case of `CCN(CC)CCN(/C(=N/c1ccccc1)N1CCCCC1)c1ccccc1`, the GI50 in the assay with TK-10 was 13.2 µM (inactive); in the assay on NCI-H522, 2.62 µM (inactive); with SNB-19, 17.8 µM (inactive); in the assay with PC-3 it was 2.72 µM (inactive); in the assay with SNB-75 it was > 10 µM (inactive); with UACC-257 it was 10.6 µM (inactive). Besides, the GI50 in the assay with MDA-N was 1.78 µM (inactive); in the assay on U-251, 12.7 µM (inactive); in the assay with HCT-15 it was 17.2 µM; in the assay on SK-MEL-28, 16.2 µM (inactive); in the assay on MDA-MB-231, 3.89 µM (inactive); with OVCAR-3 it was 2.88 µM (inactive). The GI50 was 14.1 µM (inactive) in the assay with EKVX; 0.498 µM (active) in the assay with HCT-116; 8.07 µM (inactive) in the assay on UO-31; 15.5 µM (inactive) in the assay with Malme-3M; 6.12 µM (inactive) with UACC-62.
Turning to `CC(C)(C)c1cc[n+](C[n+]2ccc(C(C)(C)C)cc2)cc1`, the GI50 in the assay on TK-10, in the assay with NCI-H522, in the assay on ACHN, in the assay with SNB-19, with PC-3 and in the assay with SNB-75 was > 100 µM (inactive) in each case. Further, the GI50 with MDA-N is > 100 µM (inactive); in the assay on U-251, > 100 µM (inactive); in the assay with HCT-15 it was greater than 100 µM; in the assay on SK-MEL-28, > 100 µM (inactive); with MDA-MB-231, > 100 µM (inactive); in the assay with OVCAR-3, > 100 µM (inactive). Moreover, the GI50 with EKVX, in the assay on HCT-116, in the assay on UO-31, with OVCAR-5, with Malme-3M and with UACC-62 was > 100 µM (inactive) each time.
For the molecule `O=C(NNC(=O)c1ccccc1O)c1cccs1`, the GI50 is > 100 µM (inactive) in the assay with TK-10; 3.51 µM (inactive) in the assay with NCI-H522; > 100 µM (inactive) in the assay on SNB-19; 47.5 µM (inactive) in the assay with PC-3; 28.3 µM (inactive) in the assay with SNB-75; > 100 µM (inactive) with UACC-257. For the same molecule, the GI50 in the assay with MDA-N is > 100 µM (inactive); in the assay with U-251, > 100 µM (inactive); with HCT-15, 47.8 µM; in the assay on SK-MEL-28 it was > 100 µM (inactive); in the assay with MDA-MB-231 it was 78.2 µM (inactive); in the assay with OVCAR-3 it was 23.7 µM (inactive). Also, the GI50 with EKVX was 34.4 µM (inactive); with HCT-116, 42.1 µM (inactive); in the assay on UO-31 it was 50.1 µM (inactive); in the assay on OVCAR-5 it was 45 µM (inactive); in the assay with Malme-3M, 22.1 µM (inactive); with UACC-62 it was 49.8 µM (inactive).
For `CC1CCOc2ccc(cc2)/C=N\c2ccc(cc2)CCc2ccc(cc2)/N=C\c2ccc(cc2)OCC1`, the GI50 is > 100 µM (inactive) in the assay with NCI-H522; > 100 µM (inactive) in the assay with ACHN; > 100 µM (inactive) in the assay on SNB-19; > 100 µM (inactive) in the assay on PC-3; 24.1 µM (inactive) with SNB-75; > 100 µM (inactive) in the assay with UACC-257. Further, the GI50 with MDA-N was > 100 µM (inactive); in the assay on U-251, > 100 µM (inactive); with HCT-15, greater than 100 µM; in the assay on SK-MEL-28, > 100 µM (inactive); in the assay with MDA-MB-231, > 100 µM (inactive); with OVCAR-3 it was > 100 µM (inactive). In addition, the GI50 with EKVX, in the assay with HCT-116, with UO-31, in the assay on OVCAR-5, with Malme-3M and in the assay with UACC-62 was > 100 µM (inactive) throughout.
